This note sets out measurements from patent publication US10703757B2, “Compounds and methods for CDK8 modulation and indications therefor” (Plexxikon Inc., priority 2016, dated 2020).

As a reminder, the IC50 is the midpoint of a concentration-inhibition curve.

Assay [1] relates to CDK8 (TCF/LEF luciferase reporter in HCT116 cells). Nature of the assay: Cell based TCF/LEF reporter assay (HCT116+TCF/LEF luciferase). Particulars: Homo sapiens, HCT-116, 24 h. The method, boiled down: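 HCT116 cells stably carrying a TCF/LEF-luciferase reporter (endogenous mutant β-catenin), seeded overnight, then exposed to serial compound dilutions for 24 h at 37 °C. Luminescence normalized to CellTiter-Fluor viability signal. % inhibition relative to DMSO and 10 uM CCT251545 controls, with IC50 from nonlinear regression.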
On the technique in general: In a reporter assay the amount or activity of a reporter protein is the signal.

Assay [2] relates to CDK8 (phosphorylation of STAT1 at serine 727 in A549 cells). Nature of the assay: Cell based Phospho-STAT1 assay (IFNγ-stimulated A549 cells, AlphaLISA). The settings on record: Homo sapiens, A549, A549 cells, phospho-STAT1 after IFNγ stimulation. Summed up:
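A549 cells given serial compound dilutions for 1 h at 37 °C, then stimulated with IFNγ at 10 ng/mL final for 30 min. Lysate STAT1 Ser727 phosphorylation measured by AlphaLISA; % inhibition vs stimulated/unstimulated DMSO controls, IC50 by nonlinear regression.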

Regarding `N#CC1CCN(c2c(-c3ccc(-c4cnn(CC5CC5)c4)cc3)cnc3[nH]ccc23)CC1` [Compound P-0177, 1-(5-(4-(1-(cyclopropylmethyl)-1H-pyrazol-4-yl)phenyl)-1H-pyrrolo[2,3-b]pyridin-4-yl)piperidine-4-carbonitrile], the half-maximal inhibitory concentration (IC50) in assay [1] and in assay [2] was 0.1 to 100 nM each time.

For `N#CC1CCN(c2c(-c3ccc(OCCOC4CCOCC4)cc3)cnc3[nH]ccc23)CC1` [Compound P-0171], the 50% inhibitory concentration (IC50) in assay [1] and in assay [2] was 0.1 to 100 nM throughout.

Consider `Cn1cc(-c2ccc(-c3cnn4cccc(C#CCOCCO)c34)cc2)cn1` [Compound P-0245, 2-((3-(3-(4-(1-methyl-1H-pyrazol-4-yl)phenyl)pyrazolo[1,5-a]pyridin-4-yl)prop-2-yn-1-yl)oxy)ethan-1-ol], for which the results for the IC50 in assay [1] and in assay [2] were 100 to 1000 nM and 0.1 to 100 nM, respectively.

Turning to `N#CC1CC=C(c2c(-c3ccc(-n4cccn4)cc3)cnc3[nH]ccc23)CC1` (stereo not shown) [Compound P-0203, 4-(5-(4-(1H-pyrazol-1-yl)phenyl)-1H-pyrrolo[2,3-b]pyridin-4-yl)cyclohex-3-ene-1-carbonitrile], the IC50 in assay [1] and in assay [2] was 0.1 to 100 nM throughout.

With `Cc1nnc(-c2ccc(-c3cnn4cccc(C5CCC(C#N)CC5)c34)cc2)o1` (stereo not shown) [Compound P-0140, 4-(3-(4-(5-methyl-1,3,4-oxadiazol-2-yl)phenyl)pyrazolo[1,5-a]pyridin-4-yl)cyclohexane-1-carbonitrile], the IC50 in assay [1] and in assay [2] was 0.1 to 100 nM in each case.

As for `CC(C)(C#Cc1cccn2ncc(-c3ccc(-c4cnn(CCC#N)c4)cc3)c12)C(N)=O` [Compound P-0005, 4-(3-(4-(1-(2-cyanoethyl)-1H-pyrazol-4-yl)phenyl)pyrazolo[1,5-a]pyridin-4-yl)-2,2-dimethylbut-3-ynamide], the IC50 in assay [1] and in assay [2] was 0.1 to 100 nM in each case.

In the case of `NC(=O)C1CC=C(c2nccn3ncc(-c4ccc(OCCN5CCOCC5)cc4)c23)CC1` (stereo not shown) [Compound P-0129, 4-(3-(4-(2-morpholino-ethoxy)phenyl)pyrazolo[1,5-a]pyrazin-4-yl)cyclohex-3-ene-1-carboxamide], the IC50 in assay [1] and in assay [2] was 0.1 to 100 nM in each case.

Regarding `Cn1cc(-c2ccc(-c3cnn4cccc(C5=CCC(C(N)=O)CC5)c34)cc2)cn1` (stereo not shown) [Compound P-0443, 4-(3-(4-(1-methyl-1H-pyrazol-4-yl)phenyl)pyrazolo[1,5-a]pyridin-4-yl)cyclohex-3-ene-1-carboxamide], the IC50 in assay [1] and in assay [2] was 0.1 to 100 nM each time.

Take `Cn1cc(-c2ccc(-c3cnn4cccc(N5C6CCC5CC(C#N)C6)c34)cc2)cn1` (stereo not shown) [Compound P-0248, 8-(3-(4-(1-methyl-1H-pyrazol-4-yl)phenyl)pyrazolo[1,5-a]pyridin-4-yl)-8-azabicyclo[3.2.1]octane-3-carbonitrile]: the IC50 in assay [1] and in assay [2] was 0.1 to 100 nM each time.

As to `CC(C)(O)C#Cc1cccn2ncc(-c3ccc(-c4cn[nH]c4)cc3)c12` [Compound P-0229, 4-(3-(4-(1H-pyrazol-4-yl)phenyl)pyrazolo[1,5-a]pyridin-4-yl)-2-methylbut-3-yn-2-ol], the 50% inhibitory concentration (IC50) in assay [1] and in assay [2] was 0.1 to 100 nM each time.

As for `N#CC1CCC(c2nccn3ncc(-c4ccc(OCCOC5CCOCC5)cc4)c23)CC1` (stereo not shown) [Compound P-0058, (1s,4s)-4-(3-(4-(2-((tetrahydro-2H-pyran-4-yl)oxy)ethoxy)phenyl)pyrazolo[1,5-a]pyrazin-4-yl)cyclohexane-1-carbonitrile], the half-maximal inhibitory concentration (IC50) in assay [1] and in assay [2] was 0.1 to 100 nM throughout.

For the molecule `N#CC1CCN(c2c(-c3ccc4cc(C(=O)O)ccc4c3)cnc3[nH]ccc23)CC1` [Compound P-0200, 6-(4-(4-cyanopiperidin-1-yl)-1H-pyrrolo[2,3-b]pyridin-5-yl)-2-naphthoic acid], the values for the IC50 in assay [1] and in assay [2] were 100 to 1000 nM and 1000 to 10000 nM, respectively.

As for `Cn1cc(C#Cc2cnc3cccc(N4CCC5(CC4)C(=O)Nc4ccccc45)n23)cn1` [Compound P-0437, 1′-(3-((1-methyl-1H-pyrazol-4-yl)ethynyl)imidazo[1,2-a]pyridin-5-yl)spiro[indoline-3,4′-piperidin]-2-one], the concentration for half-maximal inhibition (IC50) in assay [1] and in assay [2] was 0.1 to 100 nM in each case.

As to `Cc1nc2ccc(-c3cnc4[nH]ccc4c3C3=CCC(C#N)CC3)cc2s1` (stereo not shown) [Compound P-0164, 4-(5-(2-methylbenzo[d]thiazol-6-yl)-1H-pyrrolo[2,3-b]pyridin-4-yl)cyclohex-3-ene-1-carbonitrile], the half-inhibitory concentration (IC50) in assay [1] and in assay [2] was 0.1 to 100 nM throughout.

As to `N#CC1CCN(c2cccn3ncc(-c4cccc(OCc5ccccc5)c4)c23)CC1` [Compound P-0252, 1-(3-(3-(benzyloxy)phenyl)pyrazolo[1,5-a]pyridin-4-yl)piperidine-4-carbonitrile], the IC50 in assay [1] and in assay [2] was 1000 to 10000 nM in each case.

For the molecule `N#CC1CCC(c2nccn3ncc(-c4ccc(-c5cnn(CC6(C#N)CC6)c5)c(F)c4)c23)CC1` (stereo not shown) [Compound P-0018, (1s,4s)-4-(3-(4-(1-((1-cyanocyclopropyl)methyl)-1H-pyrazol-4-yl)-3-fluorophenyl)pyrazolo[1,5-a]pyrazin-4-yl)cyclohexane-1-carbonitrile], the half-inhibitory concentration (IC50) in assay [1] and in assay [2] was 0.1 to 100 nM in each case.

As to `N#CC1CC=C(c2nccn3ncc(-c4cnn(C5CC5)c4)c23)CC1` (stereo not shown) [Compound P-0076, 4-(3-(1-cyclopropyl-1H-pyrazol-4-yl)pyrazolo[1,5-a]pyrazin-4-yl)cyclohex-3-ene-1-carbonitrile], the IC50 in assay [1] and in assay [2] was 100 to 1000 nM throughout.

As for `N#CC1CC=C(c2cccn3ncc(-c4ccc(OCCN5CCCCC5)cc4)c23)CC1` (stereo not shown) [Compound P-0181, 4-(3-(4-(2-(piperidin-1-yl)ethoxy)phenyl)pyrazolo[1,5-a]pyridin-4-yl)cyclohex-3-ene-1-carbonitrile], the IC50 in assay [1] and in assay [2] was 0.1 to 100 nM throughout.

Regarding `CC(C)(C#Cc1cccn2ncc(-c3ccc(-c4cnn(CS(C)(=O)=O)c4)cc3)c12)C(N)=O` [Compound P-0460, 2,2-dimethyl-4-(3-(4-(1-((methylsulfonyl)methyl)-1H-pyrazol-4-yl)phenyl)pyrazolo[1,5-a]pyridin-4-yl)but-3-ynamide], the IC50 in assay [1] and in assay [2] was 0.1 to 100 nM each time.

Consider `CNC(=O)c1ccc2cc(-c3cnn4cccc(C5=CCC(C#N)CC5)c34)ccc2c1` (stereo not shown) [Compound P-0330, 6-(4-(4-cyanocyclohex-1-en-1-yl)pyrazolo[1,5-a]pyridin-3-yl)-N-methyl-2-naphthamide], for which the half-maximal inhibitory concentration (IC50) in assay [1] and in assay [2] was 0.1 to 100 nM throughout.

Regarding `N#CC1CCN(c2c(-c3ccc(-n4cccn4)cc3)cnc3[nH]ccc23)CC1` [Compound P-0219, 1-(5-(4-(1H-pyrazol-1-yl)phenyl)-1H-pyrrolo[2,3-b]pyridin-4-yl)piperidine-4-carbonitrile], the IC50 in assay [1] and in assay [2] was 0.1 to 100 nM in each case.

For the molecule `CS(=O)(=O)Cn1cc(-c2ccc(-c3cnn4ccnc(C5CCC(C#N)CC5)c34)cc2)cn1` (stereo not shown) [Compound P-0023, (1s,4s)-4-(3-(4-(1-((methylsulfonyl)methyl)-1H-pyrazol-4-yl)phenyl)pyrazolo[1,5-a]pyrazin-4-yl)cyclohexane-1-carbonitrile], the 50% inhibitory concentration (IC50) in assay [1] and in assay [2] was 0.1 to 100 nM each time.

In the case of `CC(C)(C#N)Cn1cc(-c2ccc(-c3cnn4ccnc(C5CCC(C#N)CC5)c34)cc2)cn1` (stereo not shown) [Compound P-0046, (1s,4s)-4-(3-(4-(1-(2-cyano-2-methylpropyl)-1H-pyrazol-4-yl)phenyl)pyrazolo[1,5-a]pyrazin-4-yl)cyclohexane-1-carbonitrile], the concentration for half-maximal inhibition (IC50) in assay [1] and in assay [2] was 0.1 to 100 nM throughout.

On to `CCCS(=O)(=O)Nc1ccc2cc(-c3cnn4cccc(C#CC(C)(C)C(N)=O)c34)ccc2c1` [Compound P-0065, 2,2-dimethyl-4-(3-(6-(propylsulfonamido)naphthalen-2-yl)pyrazolo[1,5-a]pyridin-4-yl)but-2-ynamide], for which the figures for the IC50 in assay [1] and in assay [2] were 100 to 1000 nM and 0.1 to 100 nM, respectively.

`Cc1ccc2cc(-c3cnc4[nH]ccc4c3C3=CCC(C#N)CC3)ccc2n1` (stereo not shown) [Compound P-0202, 4-(5-(2-methylquinolin-6-yl)-1H-pyrrolo[2,3-b]pyridin-4-yl)cyclohex-3-ene-1-carbonitrile]: the IC50 in assay [1] and in assay [2] was 0.1 to 100 nM throughout.

For `Cc1cc(-c2cnn3ccnc(C4=CCC(C#N)CC4)c23)ccc1C#N` (stereo not shown) [Compound P-0097, 4-(4-(4-cyanocyclohex-1-en-1-yl)pyrazolo[1,5-a]pyrazin-3-yl)-2-methylbenzonitrile], the IC50 in assay [1] was 100 to 1000 nM; in assay [2], 0.1 to 100 nM.

Regarding `Cn1cc(-c2ccc(-c3cnc4[nH]ccc4c3N3CCC(C#N)CC3)cc2)cn1` [Compound P-0421, 1-(5-(4-(1-methyl-1H-pyrazol-4-yl)phenyl)-1H-pyrrolo[2,3-b]pyridin-4-yl)piperidine-4-carbonitrile], the IC50 in assay [1] and in assay [2] was 0.1 to 100 nM throughout.

As for `CC(C)(C#Cc1nccn2ncc(-c3ccc(-c4cnn(CCCC#N)c4)cc3)c12)C(N)=O` [Compound P-0456, 4-(3-(4-(1-(3-cyanopropyl)-1H-pyrazol-4-yl)phenyl)pyrazolo[1,5-a]pyrazin-4-yl)-2,2-dimethylbut-3-ynamide], the IC50 in assay [1] and in assay [2] was 0.1 to 100 nM in each case.

`N#CC1CCC(c2cccn3ncc(-c4ccc(N5CCOCC5)nc4)c23)CC1` (stereo not shown) [Compound P-0141, 4-(3-(6-morpholinopyridin-3-yl)pyrazolo[1,5-a]pyridin-4-yl)cyclohexane-1-carbonitrile]: the 50% inhibitory concentration (IC50) in assay [1] and in assay [2] was 0.1 to 100 nM in each case.
